From patent publication US20250144230A1, “LINKERS FOR USE IN ANTIBODY DRUG CONJUGATES” (Orum Therapeutics, Inc., priority 2021, published 2025)
Where a SMILES comes first, the peptide text is derived from it. The star is where a group is joined. X1 = CSCCc1ccc(NC(=O)NCc2ccc3c(c2)CN(C2CCC(=O)N(CN*)C2=O)C3=O)cc1Cl; Hexanoyl(6-maleimido) = O=C1C=CC(=O)N1CCCCCC(=O)*

T1: papain (Carica papaya, UniProt P00784)
T1 sequence (P00784 134-345): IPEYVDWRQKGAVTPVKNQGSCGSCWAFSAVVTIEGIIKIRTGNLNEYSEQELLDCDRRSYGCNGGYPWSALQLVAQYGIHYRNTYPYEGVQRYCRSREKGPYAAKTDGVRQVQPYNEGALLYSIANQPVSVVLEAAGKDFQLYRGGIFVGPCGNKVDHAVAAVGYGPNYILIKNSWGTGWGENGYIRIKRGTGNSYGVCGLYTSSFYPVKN

B1: CD33-D Antibody-Compound (XL) conjugate (antibody, V domains shown)
VH: EVQLVQSGAEVKKPGSSVKVSCKASGYTITDSNIHWVRQAPGQSLEWIGYIYPYNGGTDYNQKFKNRATLTVDNPTNTAYMELSSLRSEDTAFYYCVNGNPWLAYWGQGTLVTVSS
VL: DIQLTQSPSTLSASVGDRVTITCRASESLDNYGIRFLTWFQQKPGKAPKLLMYAASNQGSGVPSRFSGSGSGTEFTLTISSLQPDDFATYYCQQTKEVPWSFGQGTKVEVK
modifications: Compound (XL) linker-payload on reduced interchain cysteine of the constant region, outside this domain; Compound (XL) linker-payload (maleimide) on reduced interchain cysteines of the constant regions, outside this domain; 8.0 Compound (XL)/antibody by LC-MS (Example 2-1)
notes: Antibody-drug conjugate (BRD4 degrader payload)
B2: CD33-D antibody (antibody, V domains shown)
VH: B1 VH
VL: B1 VL
notes: also called anti-CD33 antibody CD33-D
B3: CD33-D Antibody-Compound (XIV) conjugate (antibody, V domains shown)
VH: B1 VH
VL: B1 VL
modifications: Compound (XIV) linker-payload on reduced interchain cysteine of the constant region, outside this domain; Compound (XIV) linker-payload on reduced interchain cysteines of the constant regions, outside this domain; 7.9 Compound (XIV)/antibody by LC-MS (Example 2-2)
notes: Antibody-drug conjugate

Key:
[1] = biological target: T2, β-glucuronidase (Escherichia coli, UniProt P05804); assay: β-Glucuronidase digestion, in vitro payload release; type: biochemical
T2 construct: purchased Sigma Type IX-A
T2 sequence (P05804 whole entry): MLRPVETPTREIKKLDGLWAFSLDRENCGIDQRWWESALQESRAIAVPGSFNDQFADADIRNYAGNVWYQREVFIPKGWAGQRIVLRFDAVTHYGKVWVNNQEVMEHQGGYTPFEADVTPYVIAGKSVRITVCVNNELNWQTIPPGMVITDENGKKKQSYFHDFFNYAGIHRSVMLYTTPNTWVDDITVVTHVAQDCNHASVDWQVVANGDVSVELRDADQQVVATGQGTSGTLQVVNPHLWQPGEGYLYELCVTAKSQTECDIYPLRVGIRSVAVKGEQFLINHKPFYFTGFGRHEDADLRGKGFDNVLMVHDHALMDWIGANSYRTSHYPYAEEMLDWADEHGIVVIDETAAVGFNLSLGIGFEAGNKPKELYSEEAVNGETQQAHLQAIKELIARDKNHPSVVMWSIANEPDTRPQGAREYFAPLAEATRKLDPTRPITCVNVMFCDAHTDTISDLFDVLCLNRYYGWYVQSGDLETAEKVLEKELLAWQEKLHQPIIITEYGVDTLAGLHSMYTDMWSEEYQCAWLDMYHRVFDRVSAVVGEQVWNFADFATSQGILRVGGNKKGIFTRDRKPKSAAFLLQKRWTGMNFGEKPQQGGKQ
Procedure: 10 μM Compound (XLI) was incubated with β-glucuronidase (Sigma, Type IX-A; 1 mg/mL solution in PBS, […]) and the reaction mixture was incubated at 37° C. for 3 hours with gentle shaking. The digests were extracted with 5 volumes of ice-cold acetonitrile and dried down, followed by reconstitution in 95:5:0.1 water:acetonitrile:formic acid. The samples were submitted for LC-MS analysis (Thermo Exploris 240) and using the appropriate reference standards, the released payload and/or incompletely cleaved linker byproducts were identified and quantified.

[2] = biological target: T1, papain; assay: Papain digestion 2 of linker-payload compounds, in vitro payload release; type: biochemical; conditions: for % Payload Released: PBS pH 7.4, 5% DMA, room temperature; for yield of desired payload released by papain (in words): papain treatment
Procedure: 10 μM of either Compound (XL), Compound (XI), Compound (XIV), Compound (XV), Compound (XII), or Compound (XVII) (PBS pH 7.4, 5% DMA co-solvent) was incubated with papain (2 molar equivalents) at room temperature for 2 hours with gentle shaking. The digests were extracted with 5 volumes of ice-cold acetonitrile and dried down, followed by reconstitution in 95:5:0.1 water:acetonitrile:formic acid. The samples were submitted for LC-MS analysis (Thermo Exploris 240) and using the appropriate reference standards, the released payload and/or incompletely cleaved linker byproducts were identified and quantified.

[3] = biological target: T3, CD33 (UniProt P20138 18-364, limits assumed); assay: flow cytometry binding to MV4-11 cells (procedure of Example 10)
T3 construct: whole, on cells; Endogenous antigen on the cell line; also called CD33 surface antigens
T3 sequence (P20138 18-364 limits assumed): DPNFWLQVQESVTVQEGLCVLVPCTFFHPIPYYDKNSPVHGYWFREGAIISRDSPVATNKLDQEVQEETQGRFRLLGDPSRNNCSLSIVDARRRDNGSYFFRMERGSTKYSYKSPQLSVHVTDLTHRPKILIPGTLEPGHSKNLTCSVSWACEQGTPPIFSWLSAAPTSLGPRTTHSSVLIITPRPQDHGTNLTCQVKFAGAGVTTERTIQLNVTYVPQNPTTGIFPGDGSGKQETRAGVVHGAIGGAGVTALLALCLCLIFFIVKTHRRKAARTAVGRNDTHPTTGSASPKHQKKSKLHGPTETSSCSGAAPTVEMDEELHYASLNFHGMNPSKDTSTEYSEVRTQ

[4] = 10 μM compound, papain 2 molar equivalents, 2 hours
[5] = 10 μM compound, papain 2 molar equivalents, PBS pH 7.4, room temperature, 2 hours

Molecule | % Payload Released [2, 4] [%] | yield of desired payload released by papain (in words) [2] | EC50 [3] [nM] | other results
CNCCOCCc1ccc(NC(=O)NCc2ccc3c(c2)CN(C2CCC(=O)N(CN(C)C(=O)OCc4ccc(O[C@@H]5O[C@H](C(=O)O)[C@@H](O)[C@H](O)[C@H]5O)c(NC(=O)CCNC(=O)CCN5C(=O)C=CC5=O)c4)C2=O)C3=O)cc1Cl (stereo partly drawn) [Compound (XLI), (2S,3S,4S,5R,6S)-6-[4-({[({3-[5-({[(3-chloro-4-{2-[2-(methylamino)ethoxy]ethyl}phenyl)carbamoyl]amino}methyl)-1-oxo-3H-isoindol-2-yl]-2,6-dioxopiperidin-1-yl}methyl)(methyl)carbamoyl]oxy}methyl)-2-{3-[3-(2,5-dioxopyrrol-1-yl)propanamido]propanamido}phenoxy]-3,4,5-trihydroxyoxane-2-carboxylic acid] | – | – | – | % Payload Released ([1]; 10 μM compound, β-glucuronidase, 37° C., 3 hours): 90.9%; yield of desired payload released by β-glucuronidase (in words) ([1]; β-glucuronidase treatment): excellent yield
CSCCc1ccc(NC(=O)NCc2ccc3c(c2)CN(C2CCC(=O)N(CNC(=O)CNC(=O)CNC(=O)[C@H](Cc4ccccc4)NC(=O)CNC(=O)CNC(=O)CCCCCN4C(=O)C=CC4=O)C2=O)C3=O)cc1Cl (stereo partly drawn) [Compound (XVII), N-{[({[(1S)-1-[({[({[3-(5-{[({3-chloro-4-[2-(methylsulfanyl)ethyl]phenyl}carbamoyl)amino]methyl}-1-oxo-3H-isoindol-2-yl)-2,6-dioxopiperidin-1-yl]methyl}carbamoyl)methyl]carbamoyl}methyl)carbamoyl]-2-phenylethyl]carbamoyl}methyl)carbamoyl]methyl}-6-(2,5-dioxopyrrol-1-yl)hexanamide] ({Hexanoyl(6-maleimido)}-GGFGG-X1) | 10.7 | lower yields of the desired payload | – | By-Products: GGFG*G (payload-CH2NHC(O)CH2NH2, cleavage between two glycines of linker) [2, 5]: 72.5%,; By-Products: uncleaved [2, 5]: uncleaved 16.8%
CNCCOCCc1ccc(NC(=O)NCc2ccc3c(c2)CN(C2CCC(=O)N(CNC(=O)CNC(=O)[C@H](Cc4ccccc4)NC(=O)CNC(=O)CNC(=O)CCCCCN4C(=O)C=CC4=O)C2=O)C3=O)cc1Cl (stereo partly drawn) [Compound (XVIII), N-{[({[(1S)-1-({[({3-[5-({[(3-chloro-4-{2-[2-(methylamino)ethoxy]ethyl}phenyl)carbamoyl]amino}methyl)-1-oxo-3H-isoindol-2-yl]-2,6-dioxopiperidin-1-yl}methyl)carbamoyl]methyl}carbamoyl)-2-phenylethyl]carbamoyl}methyl)carbamoyl]methyl}-6-(2,5-dioxopyrrol-1-yl)hexanamide] | 97.8 | excellent yield | – | –
B1 | – | – | 0.27 | –
B2 | – | – | 0.22 | –
B3 | – | – | 0.22 | –
